What follows are molecules tested against Cdk4/CyclinD1 (Homo sapiens (Human), UniProt P11802) (assay: Cdk4 kinase inhibition assay with recombinant Cdk4/CyclinD1, Rb substrate, [33P]-ATP filter plate). Conditions: 25 μM ATP, read-out: Cdk 4 IC50.
Format: biochemical
Method: The Cdk4 and Cdk6 inhibitory activity of the compounds is measured with a kinase inhibition assay using recombinant Cdk4/CyclinD1 or Cdk6/CyclinD3 protein complexes. The protein substrate used in the assay is the retinoblastoma protein (Rb). The kinase reactions are carried out in a 96-well filter plate (MSDV N6B50, Millipore). […] The mixture is incubated at room temperature for 1 hour and the proteins precipitated with an equal volume of 20% TCA. The plates are washed with 10% TCA according to the manufacturer's instruction and dried at room temperature. The amount of the phosphorylated Rb is determined with a TopCount (PerkinElmer). The IC50 of a compound is determined by nonlinear regression curve fitting using software program Prism 5 (GraphPad Software).

Chain of Cdk4/CyclinD1 (P11802 whole entry): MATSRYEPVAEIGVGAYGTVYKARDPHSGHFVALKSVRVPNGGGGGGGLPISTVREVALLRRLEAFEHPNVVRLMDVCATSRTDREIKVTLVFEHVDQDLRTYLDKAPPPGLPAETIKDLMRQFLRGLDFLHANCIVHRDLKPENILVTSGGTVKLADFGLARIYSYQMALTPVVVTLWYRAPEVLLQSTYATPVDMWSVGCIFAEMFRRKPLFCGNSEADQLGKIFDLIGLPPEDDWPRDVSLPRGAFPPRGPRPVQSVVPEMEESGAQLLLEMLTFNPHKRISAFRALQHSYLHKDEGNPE
Chain of Cdk4/CyclinD1 (P24385 whole entry partner): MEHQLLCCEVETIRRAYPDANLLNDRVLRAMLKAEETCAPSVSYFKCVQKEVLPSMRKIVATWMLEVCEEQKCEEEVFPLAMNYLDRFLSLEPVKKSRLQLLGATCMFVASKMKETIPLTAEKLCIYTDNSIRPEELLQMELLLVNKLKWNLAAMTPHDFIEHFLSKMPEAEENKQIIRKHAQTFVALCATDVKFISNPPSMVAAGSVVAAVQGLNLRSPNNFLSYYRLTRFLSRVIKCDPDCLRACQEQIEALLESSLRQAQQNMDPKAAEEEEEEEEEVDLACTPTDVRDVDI

With `C[C@H](CO)n1c2cnccc2c2cnc(Nc3ccc(N4CCC(N(C)C)CC4)nn3)nc21` [Example 385] as the molecule, how does the IC50 read?
Its IC50 is 216 nM.

How did the IC50 turn out when `c1cc2c3cnc(Nc4ccc(N[C@@H]5CCNC5)nn4)nc3n(C3CCCC3)c2cn1` [Example 91] was run?
Its IC50 is 6.1 nM.

For `CCN(CC)C1CCN(c2ccc(Nc3ncc4c5ccnc(OC)c5n(C5CCCC5)c4n3)nc2)CC1` [Example 285, 9-cyclopentyl-N-(5-(4-(diethylamino)-1-piperidinyl)-2-pyridinyl)-8-methoxy-9H-pyrido[4′,3′:4,5]pyrrolo[2,3-d]pyrimidin-2-amine], which IC50 is on record?
Its IC50 is 2.6 nM.

How did the IC50 turn out when `NC1CCN(c2cnc(Nc3ncc4c5ccncc5n(C5CCCC5)c4n3)cn2)CC1` [Example 82] was run?
Its IC50 is 2.6 nM.

Which IC50 does the source give for `c1cc2c3cnc(Nc4ccc(N[C@H]5CCNC5)nn4)nc3n(C3CCCC3)c2cn1` [Example 92] here?
The IC50 was 8.8 nM.

`CN1CCN(c2cnc(Nc3ncc4c5ccncc5n(C5CCCC5)c4n3)cn2)CC1` [Example 78] was tested. Which IC50 did it give?
Its IC50 is 15 nM.

`COc1nccc2c3cnc(Nc4ccc(N5CCC(N6CCCC6)CC5)cn4)nc3n(C3CCC(C)(C)CC3)c12` [Example 209, 9-(4,4-dimethylcyclohexyl)-8-methoxy-N-(5-(4-(1-pyrrolidinyl)-1-piperidinyl)-2-pyridinyl)-9H-pyrido[4′,3′:4,5]pyrrolo[2,3-d]pyrimidin-2-amine] was tested. Which IC50 did it give?
The IC50 was 11 nM.

Which IC50 does the source give for `CC1(C)CN(c2ccc(Nc3ncc4c5ccncc5n([C@H]5CCC[C@H]5O)c4n3)nn2)CCN1` [Example 365] here?
The IC50 was 159 nM.

Which IC50 does the source give for `C[C@H](O)Cn1c2cnccc2c2cnc(Nc3ccc(N4CCN[C@@H](C)C4)cn3)nc21` [Example 423] here?
The IC50 was 75 nM.

With `Cc1nc(Nc2ncc3c4ccnc(Cl)c4n(C4CCCC4)c3n2)ccc1N1CCNCC1` [Example 155, 8-Chloro-9-cyclopentyl-N-(6-methyl-5-(1-piperazinyl)-2-pyridinyl)-9H-pyrido[4′,3′:4,5]pyrrolo[2,3-d]pyrimidin-2-amine] as the molecule, how does the IC50 read?
The IC50 was 4.1 nM.

For `O=C(O)Cc1ccc(Nc2ncc3c4ccncc4n(C4CCCC4)c3n2)nc1` [Example 241, (6-((9-cyclopentyl-9H-pyrido[4′,3′:4,5]pyrrolo[2,3-d]pyrimidin-2-yl)amino)-3-pyridinyl)acetic acid], which IC50 is on record?
The IC50 was 177 nM.

Which IC50 does the source give for `c1cc2c3cnc(Nc4ccc(N5CCC(N6CCCC6)CC5)cn4)nc3n(C3CCCC3)c2nn1` [Example 201, 9-cyclopentyl-N-(5-(4-(1-pyrrolidinyl)-1-piperidinyl)-2-pyridinyl)-9H-pyrimido[5′,4′:4,5]pyrrolo[2,3-c]pyridazin-7-amine] here?
Its IC50 is 26 nM.

Which IC50 does the source give for `O=c1[nH]ccc2c3cnc(Nc4ccc(N5CCNCC5)nn4)nc3n(C3CCCC3)c12` [Example 122, 9-Cyclopentyl-2-((6-(1-piperazinyl)-3-pyridazinyl)amino)-7,9-dihydro-8H-pyrido[4′,3′:4,5]pyrrolo[2,3-d]pyrimidin-8-one] here?
Its IC50 is 8.7 nM.

How did the IC50 turn out when `O[C@@H]1CCN(c2ccc(Nc3ncc4c5ccncc5n([C@H]5CCOC5)c4n3)nn2)C1` [Example 397] was run?
The IC50 was 340 nM.

`CC(C)n1c2cnccc2c2cnc(Nc3ccc(N4CCNCC4)cn3)nc21` [Example 159, 9-(1-methylethyl)-N-(5-(1-piperazinyl)-2-pyridinyl)-9H-pyrido[4′,3′:4,5]pyrrolo[2,3-d]pyrimidin-2-amine] was tested. Which IC50 did it give?
The IC50 was 3 nM.

How did the IC50 turn out when `CN(C)C1CCN(c2ccc(Nc3ncc4c5cc[nH]c(=O)c5n(C5CCCC5)c4n3)nc2)CC1` [Example 123] was run?
The IC50 was 48.1 nM.

With `CNC1CCN(c2ccc(Nc3ncc4c5ccncc5n([C@H](C)CO)c4n3)nn2)CC1` [Example 386] as the molecule, how does the IC50 read?
The IC50 was 53 nM.

For `CC[C@H](C)n1c2cnccc2c2cnc(Nc3ccc(N4CCC(N(C)C)CC4)nn3)nc21` [Example 327], which IC50 is on record?
The IC50 was 630 nM.

`c1cc2c3cnc(Nc4ccc(NCC5COCCN5)nn4)nc3n(C3CCCC3)c2cn1` (centres unmarked) [Example 100] was tested. Which IC50 did it give?
Its IC50 is 6.2 nM.

How did the IC50 turn out when `C[C@H](CO)n1c2cnccc2c2cnc(Nc3ccc(N4CCNC(C)(C)C4)nn3)nc21` [Example 388] was run?
The IC50 was 218 nM.

Which IC50 does the source give for `CC[C@H](C)n1c2cnccc2c2cnc(Nc3ccc(N4CCNC(C)(C)C4)nn3)nc21` [Example 332] here?
The IC50 was 16 nM.

`CN(C)C1CCN(c2ccc(Nc3ncc4c5ccncc5n([C@H]5CCOC5)c4n3)nn2)CC1` [Example 395] was tested. Which IC50 did it give?
Its IC50 is 300 nM.

For `Cc1nc(Nc2ncc3c4ccnc(F)c4n(C4CCCC4)c3n2)ccc1N1CCNCC1` [Example 171, 9-Cyclopentyl-8-fluoro-N-(6-methyl-5-(1-piperazinyl)-2-pyridinyl)-9H-pyrido[4′,3′:4,5]pyrrolo[2,3-d]pyrimidin-2-amine], which IC50 is on record?
The IC50 was 19 nM.

With `OC[C@H]1CN(c2ccc(Nc3ncc4c5ccncc5n(C5CCCC5)c4n3)nc2)CCN1` [Example 197, ((2R)-4-(6-((9-Cyclopentyl-9H-pyrido[4′,3′:4,5]pyrrolo[2,3-d]pyrimidin-2-yl)amino)-3-pyridinyl)-2-piperazinyl)methanol] as the molecule, how does the IC50 read?
The IC50 was 4.2 nM.

For `CC1(C)CN(c2ccc(Nc3ncc4c5cc[nH]c(=O)c5n(C5CCCC5)c4n3)nn2)CCN1` [Example 130], which IC50 is on record?
Its IC50 is 20 nM.

Which IC50 does the source give for `c1ccc(-n2c3cnccc3c3cnc(Nc4ccc(N5CCNCC5)cc4)nc32)cc1` [Example 17, (9-Phenyl-9H-pyrido[4′,3′:4,5]pyrrolo[2,3-d]pyrimidin-2-yl)-(4-piperazin-1-yl-phenyl)amine] here?
The IC50 was 0.32 nM.

How did the IC50 turn out when `CN(C)C1CCN(c2ccc(Nc3ncc4c5ccncc5n(C5CCC(C)(C)CC5)c4n3)cn2)CC1` [Example 205, N-(6-(4-(dimethylamino)-1-piperidinyl)-3-pyridinyl)-9-(4,4-dimethylcyclohexyl)-9H-pyrido[4′,3′:4,5]pyrrolo[2,3-d]pyrimidin-2-amine] was run?
Its IC50 is 2.6 nM.

How did the IC50 turn out when `CC(=O)OCC(=O)N1CCN(c2ccc(Nc3ncc4c5ccnc(F)c5n(C5CCCC5)c4n3)nc2)CC1` [Example 194, 2-(4-(6-((9-cyclopentyl-8-fluoro-9H-pyrido[4′,3′:4,5]pyrrolo[2,3-d]pyrimidin-2-yl)amino)-3-pyridinyl)-1-piperazinyl)-2-oxoethyl acetate] was run?
The IC50 was 600 nM.

For `CNC1CCN(c2ccc(Nc3ncc4c5ccncc5n([C@H]5CCC[C@H]5O)c4n3)nn2)CC1` [Example 364], which IC50 is on record?
Its IC50 is 258 nM.

With `C[C@H]1CN(c2ccc(Nc3ncc4c5ccncc5n([C@H]5CCC[C@H]5O)c4n3)nc2)CCN1` [Example 359] as the molecule, how does the IC50 read?
The IC50 was 71 nM.

With `CC[C@H](C)n1c2cnccc2c2cnc(Nc3ccc(N4CCC(NC)CC4)cn3)nc21` [Example 335] as the molecule, how does the IC50 read?
The IC50 was 1630 nM.

With `O=C1CN(c2ccc(Nc3ncc4c5ccncc5n(C5CCCC5)c4n3)nn2)CCN1` [Example 115] as the molecule, how does the IC50 read?
The IC50 was 2.3 nM.

For `CCC1CN(c2ccc(Nc3ncc4c5ccncc5n(C5CCCC5)c4n3)nn2)CCN1` (centres unmarked) [Example 121], which IC50 is on record?
Its IC50 is 4.3 nM.

Which IC50 does the source give for `OCCN1CCN(c2ccc(Nc3ncc4c5ccncc5n(C5CCCC5)c4n3)nc2)CC1` [Example 191, 2-(4-(6-((9-Cyclopentyl-9H-pyrido[4′,3′:4,5]pyrrolo[2,3-d]pyrimidin-2-yl)amino)-3-pyridinyl)-1-piperazinyl)ethanol] here?
The IC50 was 4.4 nM.

With `CNC1CCN(c2ccc(Nc3ncc4c5ccncc5n(C[C@H](C)O)c4n3)nn2)CC1` [Example 411] as the molecule, how does the IC50 read?
The IC50 was 430 nM.

For `C[C@@H](CO)n1c2cnccc2c2cnc(Nc3ccc(N4CC[C@@H](O)C4)cn3)nc21` [Example 368], which IC50 is on record?
Its IC50 is 284 nM.

With `O=S1(=O)CCC(O)(c2ccc(Nc3ncc4c5ccncc5n(C5CCCC5)c4n3)nc2)CC1` [Example 263, 4-(6-((9-cyclopentyl-9H-pyrido[4′,3′:4,5]pyrrolo[2,3-d]pyrimidin-2-yl)amino)-3-pyridinyl)tetrahydro-2H-thiopyran-4-ol 1,1-dioxide] as the molecule, how does the IC50 read?
The IC50 was 14 nM.

Which IC50 does the source give for `c1cc2c3cnc(Nc4ccc(N5CCNC6(CCCC6)C5)nn4)nc3n(C3CCCC3)c2cn1` [Example 247, 9-cyclopentyl-N-(6-(6,9-diazaspiro[4.5]dec-9-yl)-3-pyridazinyl)-9H-pyrido[4′,3′:4,5]pyrrolo[2,3-d]pyrimidin-2-amine] here?
The IC50 was 3.4 nM.

For `OCCN1CCN(c2ccc(Nc3ncc4c5ccnc(F)c5n(C5CCCC5)c4n3)nc2)CC1` [Example 170, 2-(4-(6-((9-Cyclopentyl-8-fluoro-9H-pyrido[4′,3′:4,5]pyrrolo[2,3-d]pyrimidin-2-yl)amino)-3-pyridinyl)-1-piperazinyl)ethanol], which IC50 is on record?
The IC50 was 2.5 nM.

Which IC50 does the source give for `CN1CCN(c2ccc(Nc3ncc4c5cc[nH]c(=O)c5n(C5CCCC5)c4n3)nn2)CC1` [Example 128] here?
Its IC50 is 29 nM.

Which IC50 does the source give for `CNC1CCN(c2ccc(Nc3ncc4c5ccncc5n([C@@H]5CCNC5)c4n3)nc2)CC1` [Example 340] here?
The IC50 was 370 nM.

Which IC50 does the source give for `COC1CCN(c2ccc(Nc3ncc4c5ccncc5n(C5CCCC5)c4n3)nc2)C1` (centres unmarked) [Example 73] here?
Its IC50 is 17 nM.

With `C[C@H]1CN(c2ccc(Nc3ncc4c5cc[nH]c(=O)c5n(C5CCCC5)c4n3)nn2)CCN1` [Example 129] as the molecule, how does the IC50 read?
The IC50 was 16 nM.

`CN(C)C1CCN(c2ccc(Nc3ncc4c5cc[nH]c(=O)c5n(C5CCCC5)c4n3)nn2)CC1` [Example 127] was tested. Which IC50 did it give?
Its IC50 is 5.3 nM.

How did the IC50 turn out when `CN(C)C1CCN(c2nc(Nc3ncc4c5ccncc5n(C5CCCC5)c4n3)ns2)CC1` [Example 134] was run?
The IC50 was 190 nM.

How did the IC50 turn out when `C[C@H](CO)n1c2cnccc2c2cnc(Nc3ccc(N4CCNCC4)cn3)nc21` [Example 375] was run?
The IC50 was 40 nM.

`c1cc2c3cnc(Nc4ccc(N5CCC6(CC5)COCCN6)nn4)nc3n(C3CCCC3)c2cn1` [Example 249, 9-cyclopentyl-N-(6-(4-oxa-1,9-diazaspiro[5.5]undec-9-yl)-3-pyridazinyl)-9H-pyrido[4′,3″:4,5]pyrrolo[2,3-d]pyrimidin-2-amine] was tested. Which IC50 did it give?
The IC50 was 4.4 nM.

How did the IC50 turn out when `CNC1CCN(c2ccc(Nc3ncc4c5ccncc5n(C5CCCC5)c4n3)nc2)CC1` [Example 75] was run?
The IC50 was 1.4 nM.

How did the IC50 turn out when `c1cc2c3cnc(Nc4ccc(N5CCC(N6CCCC6)CC5)cn4)nc3n(C3CCCC3)c2cn1` [Example 76] was run?
The IC50 was 5.9 nM.

With `NC1CCCN(c2ccc(Nc3ncc4c5ccncc5n(C5CCCC5)c4n3)nn2)C1` (centres unmarked) [Example 116] as the molecule, how does the IC50 read?
The IC50 was 2 nM.

From patent US8841312B2, “Fused pyridine, pyrimidine and triazine compounds as cell cycle inhibitors” (Amgen Inc., priority 2007, dated 2014)
